In this experiment the test system is children with EE. The experiment is classed as in vivo, human. From the text:
Patient 1 was a person with a history of abdominal pain, failure to thrive, and vomiting since infancy, and developmental delay with isolated EE diagnosed in 2001. Their allergic history was significant for allergic rhinitis secondary to cat, dog, and dust mite exposure as well as positive Pharmacia CAP radioallergosorbent testing for fish and milk. […] They were referred to Children's Hospital Eosinophilic Gastrointestinal Disorders clinic for further management of EE recalcitrant to usual therapy. At the time of their referral, they continued to have vomiting and poor weight gain and their parent reported significant difficulty with the puff and swallow technique. They were placed on a regimen of twice daily oral budesonide suspension (Pulmicort®) 500 micrograms (4 ml) mixed with about 10 packets (1 gram each) sucralose (Splenda®), a non-absorbed sugar in order to increase fluid viscosity to be swallowed twice daily. The total volume of the preparation was about 7 to 8 ml. […] Eight am cortisol was 13.2 mcg/dL (normal range for age 3-15 mcg/dL) after four months of therapy.
Patient 2 was a child with a history of developmental delay, abdominal pain, and RAST positivity for milk, egg, and wheat. […] They were placed on a hydrolyzed formula containing milk protein (Peptamen Jr®), omeprazole 10 mg twice daily and oral cromolyn (Gastrocrom®) 100 mg four times daily. […] They were referred to the Children's Hospital Eosinophilic Gastrointestinal Disorders clinic for further management. […] After two months of elemental formula and oral cromolyn sodium, EGD was unchanged with a pale, furrowed esophagus and maximal eosinophil counts of 100, 90, and 70 per hpf in the distal, mid, and proximal esophagus with diffuse basal zone hyperplasia. Their developmental delay precluded the use of a fluticasone inhaler devise with puff and swallow technique. As an alternative, they received oral budesonide 500 micrograms (Pulmicort®) mixed with sucralose (Splenda®) twice daily as topical esophageal therapy.

Where [1] appears, read: Patient 2, elemental formula and oral cromolyn sodium, two months.
[2] abbreviates: Patient 2, hydrolyzed formula, omeprazole and oral cromolyn 100 mg four times daily, 12 months.

Where two headings read alike, the source gives them in different places.

Turning to `C[C@]12C=CC(=O)C=C1CC[C@@H]1[C@@H]2C(=O)C[C@@]2(C)[C@H]1CC[C@]2(O)C(=O)CO` [prednisone], the “maximum eosinophils per hpf on repeat EGD with biopsy” value (Patient 1 (EE, 60 per hpf at diagnosis), oral prednisone 0.5 mg per kg daily for one month) was found to be 2 per hpf.
Consider `O=C(O)c1cc(=O)c2c(OCC(O)COc3cccc4oc(C(=O)O)cc(=O)c34)cccc2o1` [cromolyn], for which the “maximum eosinophil count, distal esophagus” value (Patient 2 (40 per hpf before), hydrolyzed formula (Peptamen Jr), omeprazole 10 mg twice daily and oral cromolyn 100 mg four times daily, 12 months) is 94 per hpf. Also, under setting [1], the “maximal eosinophil count, distal esophagus” value is reported as 100 per hpf; the “maximal eosinophil count, mid esophagus” value is 90 per hpf; the “maximal eosinophil count, proximal esophagus” value is listed as 70 per hpf. Moreover, under setting [2], the “maximum eosinophil count, mid esophagus” value was 65 per hpf and the “maximum eosinophil count, proximal esophagus” value was 90 per hpf.
`CCC(=O)O[C@]1(C(=O)SCF)[C@H](C)C[C@H]2[C@@H]3C[C@H](F)C4=CC(=O)C=C[C@]4(C)[C@@]3(F)[C@@H](O)C[C@@]21C` [fluticasone]: where the note is “Patient 1, elemental formula and fluticasone, accompanied by basal zone hyperplasia”, the maximal eosinophil count worked out at 74 per hpf. Further, under “Patient 1, omeprazole 10 mg twice daily and fluticasone 220 ug twice daily, after 6 months”, the maximum eosinophil count came to 50 per hpf.
Regarding `CCCC1O[C@@H]2C[C@H]3[C@@H]4CCC5=CC(=O)C=C[C@]5(C)[C@H]4[C@@H](O)C[C@]3(C)[C@]2(C(=O)CO)O1` (stereo partly drawn) [budesonide, 16,17-(butylidenebis(oxy))-11,21-dihydroxy-, (11-β,16-α)-pregna-1,4-diene-3,20-dione], the “maximum eosinophil count, proximal esophagus” value (Patient 2 (70 before), oral budesonide 500 micrograms mixed with sucralose twice daily, 3 months) came to 5 per hpf. Further, the “maximum eosinophil count, mid esophagus” value (Patient 2 (90 before), oral budesonide 500 micrograms mixed with sucralose twice daily, 3 months) amounted to 20 per hpf. Moreover, the “maximum eosinophil count, distal esophagus” value (Patient 2 (100 before), oral budesonide 500 micrograms (Pulmicort) mixed with sucralose twice daily, 3 months) worked out at 28 per hpf.
